Like-named read-outs stand apart in the source and are kept apart here.
How the values were obtained:
doxorubicin injured mice [1] = settings: ten weeks after initiation of doxorubicin treatment
Description: (§1) After the completion of doxorubicin treatment, mice were subsequently treated with either Lapatinib alone (100 mg/kg, oral gavage, daily) or Rapamycin alone (6 mg/kg, i.p., daily). Survival was monitored. Cardiac function was assessed by hemodynamic measurements.

doxorubicin treated mice [2] = experiment: Echocardiography of doxorubicin and doxorubicin+lapatinib treated mice; settings: FIG. 3
Description: (§2) Female FVB/n mice between 10 and 12 weeks old were treated with doxorubicin (2 mg/kg) by intraperitoneal injection (i.p.) twice a week for 7 weeks. […] After completion of the doxorubicin treatment cycle, the mice were subsequently treated with various doses of lapatinib (25, 50, and 100 mg/kg, given by oral gavage, daily) or with vehicle control.
(§3) Cardiac function of the doxorubicin and doxorubicin+lapatinib treated mice was evaluated by echocardiography.

doxorubicin treated mice [3] = tested on: doxorubicin treated mice
doxorubicin injured mice [4] = experiment: Cardiac output by hemodynamic measurements in doxorubicin injured mice treated with Lapatinib or Rapamycin; assay type: in vivo
Description: as §1

[5] = tested on: doxorubicin+BEZ235 treated mice; experiment: Echocardiography and heart/lung weight ratios in mice co-treated with doxorubicin, BEZ235 and lapatinib; settings: lapatinib co-treatment of doxorubicin+BEZ235 treated mice; FIG. 6
Description: FVB/n female mice were treated with doxorubicin (2 mg/kg, i.p.) twice a week, PI3 kinase-mTOR inhibitor BEZ235 (35-50 mg/kg, oral, daily) and lapatinib (25, 50 or 100 mg/kg, oral, daily). Cardiac function was monitored by echocardiography.

doxorubicin treated mice [6] = experiment: Hemodynamic measurements (dP/dtmax, dP/dtmin) in doxorubicin and doxorubicin+lapatinib treated mice; settings: FIG. 4
Description: as §2, §3

[7] = three weeks after initiation of lapatinib treatment, doxorubicin+lapatinib vs doxorubicin treated mice
[8] = doxorubicin+lapatinib treated vs control mice
[9] = nine weeks after initiation of doxorubicin treatment, doxorubicin treated versus control mice
[10] = doxorubicin treated vs. control mice

## CO[C@H]1C[C@@H]2CC[C@@H](C)[C@@](O)(O2)C(=O)C(=O)N2CCCC[C@H]2C(=O)O[C@H]([C@H](C)C[C@@H]2CC[C@@H](O)[C@H](OC)C2)CC(=O)[C@H](C)/C=C(\C)[C@@H](O)[C@@H](OC)C(=O)[C@H](C)C[C@H](C)/C=C/C=C/C=C/1C [Rapamycin]
Doxorubicin injured mice [1]; Rapamycin 6 mg/kg i.p. daily after doxorubicin
  survival: 63%

## CS(=O)(=O)CCNCc1ccc(-c2ccc3ncnc(Nc4ccc(OCc5cccc(F)c5)c(Cl)c4)c3c2)o1 [lapatinib, N-[3-chloro-4-[(3-fluorophenyl)methoxy]phenyl]-6-[5-[(2-methylsulfonylethylamino)methyl]-2-furyl]quinazolin-4-amine]
Doxorubicin treated mice [2]; [7]
  EF %: reversed these effects
  ESV: reversed these effects
Doxorubicin treated mice [3]; 64 days after initiation of doxorubicin treatment, lapatinib 25 mg/kg oral gavage daily after the doxorubicin cycle
  survival: 100%
Doxorubicin treated mice [3]; 64 days after initiation of doxorubicin treatment, lapatinib 50 mg/kg oral gavage daily after the doxorubicin cycle
  survival: 83%
Doxorubicin treated mice [3]; 64 days after initiation of doxorubicin treatment, lapatinib 100 mg/kg oral gavage daily after the doxorubicin cycle
  survival: 71%
Doxorubicin treated mice [3]; 70 days after initiation of doxorubicin treatment, lapatinib 100 mg/kg oral gavage daily after the doxorubicin cycle
  survival: 55%
Doxorubicin treated mice [3]; lapatinib 25, 50 and 100 mg/kg oral gavage daily vs vehicle control
  survival of doxorubicin treated mice (FIG. 1): improved survival
Doxorubicin injured mice [4]; Lapatinib (100 mg/kg oral daily) treated doxorubicin injured mice vs. non-treated control mice
  cardiac output: No difference
[5]
  EF %: reversed these effects
  end-diastolic volume (EDV): reversed these effects
  end-systolic volume (ESV): reversed these effects
  heart weight to body weight ratio (HW/BW): reversed these effects
  lung to body weight ratio: reversed these effects
  relative wall thickness (RWth): reversed these effects
Doxorubicin treated mice [6]; [8]
  dP/dtmax: not different
  dP/dtmin: not different
Doxorubicin injured mice [1]; Lapatinib 100 mg/kg oral gavage daily after doxorubicin
  survival: 71%

## COc1cccc2c1C(=O)c1c(O)c3c(c(O)c1C2=O)C[C@@](O)(C(=O)CO)C[C@@H]3O[C@H]1C[C@H](N)[C@H](O)[C@H](C)O1 [doxorubicin]
Doxorubicin treated mice [2]; [9]
  EF %: decreased
  ESV: significantly increased
Doxorubicin treated mice [3]; 64 days after initiation of doxorubicin treatment, doxorubicin 2 mg/kg i.p. twice a week for 7 weeks, then vehicle control, female FVB/n mice
  survival: 68%
Doxorubicin treated mice [3]; 70 days after initiation of doxorubicin treatment, doxorubicin 2 mg/kg i.p. twice a week for 7 weeks, then vehicle control
  survival: 34%
Doxorubicin injured mice [4]; Solvent treated doxorubicin injured mice vs. non-treated control mice, ten weeks
  cardiac output: significantly decreased
Doxorubicin treated mice [6]; [10]
  dP/dtmax: significantly decreased
  dP/dtmin: significantly decreased
Doxorubicin injured mice [1]; Solvent treated doxorubicin injured mice (doxorubicin 2 mg/kg i.p. twice a week for 7 weeks)
  survival: 43%

— patent publication US9119858B2, “Compositions and methods for treating or preventing anthracycline induced cardiotoxicity” (Genesys Research Institute, priority 2012, dated 2015)
